Earlier results, collected in patent US6399047B1, “Benzoxazole derivatives for use in cosmetic compositions and for stabilizing synthetic polymers” (3V Sigma S.p.A., priority 2000, dated 2002).

Tests used:
[1] = background statement
[2] = background statement; remark: listed apart in the source

Q: Which results are given for `COc1ccc(C(=O)c2ccccc2)c(O)c1` [2-Hydroxy-4-methoxybenzophenone]?
A: maximum absorption in the UV-A zone [1]: about 325 nm; solubility in solvents usually used in cosmetics [2]: very low
